One molecule from patent US7485661B2, “Heterobicyclic pyrazole derivatives as kinase inhibitors” (Pfizer Italia S.r.l., priority 2005, dated 2009) can be followed below.

What is called melting point is the temperature, or range, at which the solid turns liquid. With `CCOC(=O)c1cc2[nH]nc(N)c2s1` [Compound 6, Ethyl 3-amino-1H-thieno[3,2-c]pyrazole-5-carboxylate], the melting point fell in the range of 231 to 233 °C.
